Read-outs that look alike come from different tables or passages of the source.
What was measured:
[1] = Multiple dosing study in dogs: systemic exposure (plasma) to fexinidazole and its metabolites; format: in vivo, dog; details: for concentration at 0 h / concentration at 0.5 h / concentration at 1 h / concentration at 2 h / concentration at 4 h / concentration at 8 h / concentration at 24 h / Cmax / Tmax / AUC(0-t): dog, plasma; for concentration at 0 h / concentration at 0.5 h / concentration at 1 h / concentration at 2 h / concentration at 4 h / concentration at 8 h / concentration at 24 h: oral, read-out: Average plasma concentrations of fexinidazole; for concentration at 2 h: Day 1, 2 hours; for concentration at 4 h: Day 1, 4 hours; for concentration at 8 h: Day 1, 8 hours; for concentration at 24 h: Day 1, 24 hours; for Cmax / Tmax / AUC(0-t): po; for AUC(0-t): read-out: AUC0-t (last)
Procedure: In an embodiment, the fexinidazole may be administered to the canine as an aqueous oral suspension, comprising 5% TWEEN 80 and 0.5% Methyl cellulose 400 cP (METHOCEL). Provided in this format, fexinidazole suspensions of 5, 20, and 80 mg fexinidazole/mL may be prepared such that 10 mL of each concentration contains 50, 200, and 800 mg fexinidazole, respectively.
(§1) Moreover, inventors expect that a wide variety of dosing regimens are now available to the skilled person to achieve the necessary and sufficient fexinidazole plasma levels. For example, and as further outlined in the Examples below, any dosing regimen that produces substantially similar fexinidazole plasma levels, as compared to those levels produced by giving the dogs about 60 mg/kg/day for about twenty-eight days, is expected to substantially or completely eliminate the Leishmania parasites. Table 1 presents the systemic fexinidazole exposure following dosing of dogs with 50, 200, and 800 mg/kg/day.

[2] = Multiple dosing study in dogs, 28 consecutive days oral: tolerability; format: in vivo, dog; details: for Effects observed: dog, in vivo
Description: In a particular embodiment, the sufficient fexinidazole plasma levels are achieved by administering oral veterinary compositions comprising an effective amount of fexinidazole over a period of time of at least about twenty days. The fexinidazole may be administered according to any effective regimen, including, but not solely, once weekly, twice weekly, once daily, or twice daily. All that is required is that dosing regimen maintains a sufficient fexinidazole plasma level, over a sufficient period of time, to substantially or completely eliminate or cure the Leishmania infections.
as §1

[3] = Reproductive toxicity study, rats; format: in vivo; details: oral 200 mg/kg for 10 days
Description: (§2) Toxicology summary. In mice and rats, the maximum fexinidazole (FEX) dose after oral administration is 10 g/kg of body weight. […] Finally, as regards PK, labeled FEX and its metabolites were excreted within 3 days in the feces (52-58%) and urine (36-40%).

[4] = test system: chromosome damage; experiment: Chromosome damage in vitro or in vivo
Description: as §2

[5] = test system: Leishmania donovani amastigotes grown in macrophages; details: Wyllie S et al., 2012; cited from earlier work
[6] = Toxicology summary: maximum dose after oral administration, mice; format: in vivo
Description: as §2

[7] = test system: L. donovani; details: mice; Wyllie, Sci Transl. Med 4, 119, 2012; cited from earlier work
[8] = test system: bone marrow micronucleus; experiment: Mammalian cell mutagenicity, bone marrow micronucleus study; format: in vivo; details: all test concentrations (500, 1000 and 2000 mg/kg)
Description: as §2

[9] = Toxicology studies in beagles, 90 days (13 weeks); format: in vivo; details: daily doses up to 125 mg/kg/day for 90 days (13 weeks)
Description: as §2

[10] = Reproductive toxicity study, rabbits; format: in vivo; details: oral 40 mg/kg for 13 days
Description: as §2

[11] = Toxicology summary: maximum dose after oral administration, rats; format: in vivo
Description: as §2

[12] = 50 mg/kg/day, 50 mg/kg/day oral
[13] = 200 mg/kg/day, 200 mg/kg/day oral
[14] = female, 50 mg/kg/day, Female Dog, 50 mg/kg/day oral, D1, mean ± SD, n = 3
[15] = female, 50 mg/kg/day, Female Dog, 50 mg/kg/day oral, D14, mean ± SD, n = 3
[16] = female, 50 mg/kg/day, Female Dog, 50 mg/kg/day oral, D28, mean ± SD, n = 3
[17] = female, 200 mg/kg/day, Female Dog, 200 mg/kg/day oral, D1, mean ± SD, n = 3
[18] = female, 200 mg/kg/day, Female Dog, 200 mg/kg/day oral, D14, mean ± SD, n = 3
[19] = female, 200 mg/kg/day, Female Dog, 200 mg/kg/day oral, D28, mean ± SD, n = 3
[20] = female, 800 mg/kg/day, Female Dog, 800 mg/kg/day oral, D1, mean ± SD, n = 5
[21] = female, 800 mg/kg/day, Female Dog, 800 mg/kg/day oral, D14, mean ± SD, n = 5
[22] = female, 800 mg/kg/day, Female Dog, 800 mg/kg/day oral, D28, mean ± SD, n = 5
[23] = male, 50 mg/kg/day, Male Dog, 50 mg/kg/day oral, D1, mean ± SD, n = 3
[24] = male, 50 mg/kg/day, Male Dog, 50 mg/kg/day oral, D14, mean ± SD, n = 3
[25] = male, 50 mg/kg/day, Male Dog, 50 mg/kg/day oral, D28, mean ± SD, n = 3
[26] = male, 200 mg/kg/day, Male Dog, 200 mg/kg/day oral, D1, mean ± SD, n = 3
[27] = male, 200 mg/kg/day, Male Dog, 200 mg/kg/day oral, D14, mean ± SD, n = 3
[28] = male, 200 mg/kg/day, Male Dog, 200 mg/kg/day oral, D28, mean ± SD, n = 3
[29] = male, 800 mg/kg/day, Male Dog, 800 mg/kg/day oral, D1, mean ± SD, n = 5
[30] = male, 800 mg/kg/day, Male Dog, 800 mg/kg/day oral, D14, mean ± SD, n = 5
[31] = male, 800 mg/kg/day, Male Dog, 800 mg/kg/day oral, D28, mean ± SD, n = 5

SMILES: CSc1ccc(OCc2ncc([N+](=O)[O-])n2C)cc1 [Fexinidazole, fexinidazole]
- Average plasma concentrations of fexinidazole ([1]; 50 mg/kg/day oral, Day 14, 2 hours): 26.8 ng/mL
- Average plasma concentrations of fexinidazole ([1]; 50 mg/kg/day oral, Day 14, 4 hours): ~9 ng/mL
- Average plasma concentrations of fexinidazole ([1]; 50 mg/kg/day oral, Day 14, 8 hours): <5 ng/mL
- Average plasma concentrations of fexinidazole ([1]; 50 mg/kg/day oral, Day 14, 24 hours): <5 ng/mL
- Average plasma concentrations of fexinidazole ([1]; 50 mg/kg/day oral, Day 28, 0 hours): <5 ng/mL
- Average plasma concentrations of fexinidazole ([1]; 50 mg/kg/day oral, Day 28, 1 hour): 28.3 ng/mL
- Average plasma concentrations of fexinidazole ([1]; 50 mg/kg/day oral, Day 28, 2 hours): 17.5 ng/mL
- Average plasma concentrations of fexinidazole ([1]; 50 mg/kg/day oral, Day 28, 4 hours): 14.3 ng/mL
- Average plasma concentrations of fexinidazole ([1]; 50 mg/kg/day oral, Day 28, 8 hours): ~5 ng/mL
- Average plasma concentrations of fexinidazole ([1]; 50 mg/kg/day oral, Day 28, 24 hours): <5 ng/mL
- Average plasma concentrations of fexinidazole ([1]; 200 mg/kg/day oral, Day 14, 2 hours): 70.2 ng/mL
- Average plasma concentrations of fexinidazole ([1]; 200 mg/kg/day oral, Day 14, 4 hours): 27.6 ng/mL
- Average plasma concentrations of fexinidazole ([1]; 200 mg/kg/day oral, Day 14, 8 hours): 13.5 ng/mL
- Average plasma concentrations of fexinidazole ([1]; 200 mg/kg/day oral, Day 14, 24 hours): 10.2 ng/mL
- Average plasma concentrations of fexinidazole ([1]; 200 mg/kg/day oral, Day 28, 0 hours): <5 ng/mL
- Average plasma concentrations of fexinidazole ([1]; 200 mg/kg/day oral, Day 28, 1 hour): 65.4 ng/mL
- Average plasma concentrations of fexinidazole ([1]; 200 mg/kg/day oral, Day 28, 2 hours): 44.6 ng/mL
- Average plasma concentrations of fexinidazole ([1]; 200 mg/kg/day oral, Day 28, 4 hours): 23.5 ng/mL
- Average plasma concentrations of fexinidazole ([1]; 200 mg/kg/day oral, Day 28, 8 hours): 12.4 ng/mL
- Average plasma concentrations of fexinidazole ([1]; 200 mg/kg/day oral, Day 28, 24 hours): 12.4 ng/mL
- concentration at 0 h ([1]; 50 mg/kg/day, 50 mg/kg/day oral, Day 1, 0 hours): < 5 ng/mL
- concentration at 0.5 h ([1]; 50 mg/kg/day, 50 mg/kg/day oral, Day 1, 0.5 hours): 34.5 ng/mL
- concentration at 1 h ([1]; 50 mg/kg/day, 50 mg/kg/day oral, Day 1, 1 hour): 30.3 ng/mL
- concentration at 2 h [1, 12]: 23.8 ng/mL
- concentration at 4 h [1, 12]: 12.6 ng/mL
- concentration at 8 h [1, 12]: < 5 ng/mL
- concentration at 24 h [1, 12]: < 5 ng/mL
- concentration at 0 h ([1]; 50 mg/kg/day, 50 mg/kg/day oral, Day 14, 0 hours): < 5 ng/mL
- concentration at 0.5 h ([1]; 50 mg/kg/day, 50 mg/kg/day oral, Day 14, 0.5 hours): 28.8 ng/mL
- concentration at 1 h ([1]; 50 mg/kg/day, 50 mg/kg/day oral, Day 14, 1 hour): 29.5 ng/mL
- concentration at 0 h ([1]; 200 mg/kg/day, 200 mg/kg/day oral, Day 1, 0 hours): < 5 ng/mL
- concentration at 0.5 h ([1]; 200 mg/kg/day, 200 mg/kg/day oral, Day 1, 0.5 hours): 52.1 ng/mL
- concentration at 1 h ([1]; 200 mg/kg/day, 200 mg/kg/day oral, Day 1, 1 hour): 61.3 ng/mL
- concentration at 2 h [1, 13]: 45.9 ng/mL
- concentration at 4 h [1, 13]: 22.6 ng/mL
- concentration at 8 h [1, 13]: 9.9 ng/mL
- concentration at 24 h [1, 13]: 13 ng/mL
- concentration at 0 h ([1]; 200 mg/kg/day, 200 mg/kg/day oral, Day 14, 0 hours): 16.6 ng/mL
- concentration at 0.5 h ([1]; 200 mg/kg/day, 200 mg/kg/day oral, Day 14, 0.5 hours): 53.4 ng/mL
- concentration at 1 h ([1]; 200 mg/kg/day, 200 mg/kg/day oral, Day 14, 1 hour): 63.2 ng/mL
- Metabolism ([1]; dogs, after single and repeated administration): extensively metabolized to the sulfone and sulfoxide derivatives
- Cmax [1, 14]: 42.4 ± 10.6 ng/mL
- Tmax [1, 14]: 1 ± 0.87 h
- AUC(0-t) [1, 14]: 237 ± 105 ng·h/mL
- Cmax [1, 15]: 41.9 ± 2.2 ng/mL
- Tmax [1, 15]: 1.67 ± 0.58 h
- AUC(0-t) [1, 15]: 246 ± 117 ng·h/mL
- Cmax [1, 16]: 36.3 ± 15.1 ng/mL
- Tmax [1, 16]: 1 h
- AUC(0-t) [1, 16]: 87.1 ± 38.1 ng·h/mL
- Cmax [1, 17]: 84.1 ± 36.7 ng/mL
- Tmax [1, 17]: 1 h
- AUC(0-t) [1, 17]: 454 ± 119 ng·h/mL
- Cmax [1, 18]: 77.7 ± 50.8 ng/mL
- Tmax [1, 18]: 2 h
- AUC(0-t) [1, 18]: 443 ± 217 ng·h/mL
- Cmax [1, 19]: 73 ± 12 ng/mL
- Tmax [1, 19]: 1 h
- AUC(0-t) [1, 19]: 377 ± 83.5 ng·h/mL
- Cmax [1, 20]: 184 ± 75.6 ng/mL
- Tmax [1, 20]: 1.2 ± 0.45 h
- AUC(0-t) [1, 20]: 895 ± 437 ng·h/mL
- Cmax [1, 21]: 152 ± 44 ng/mL
- Tmax [1, 21]: 1.4 ± 0.55 h
- AUC(0-t) [1, 21]: 1170 ± 309 ng·h/mL
- Cmax [1, 22]: 101 ± 47.1 ng/mL
- Tmax [1, 22]: 1 h
- AUC(0-t) [1, 22]: 956 ± 378 ng·h/mL
- Cmax [1, 23]: 31.2 ± 12.4 ng/mL
- Tmax [1, 23]: 0.5 h
- AUC(0-t) [1, 23]: 140 ± 147 ng·h/mL
- Cmax [1, 24]: 26.5 ± 13 ng/mL
- Tmax [1, 24]: 0.5 h
- AUC(0-t) [1, 24]: 52.1 ± 29.4 ng·h/mL
- Cmax [1, 25]: 20.3 ± 7.89 ng/mL
- Tmax [1, 25]: 1 h
- AUC(0-t) [1, 25]: 124 ± 67 ng·h/mL
- Cmax [1, 26]: 54.9 ± 10.8 ng/mL
- Tmax [1, 26]: 1 ± 0.87 h
- AUC(0-t) [1, 26]: 419 ± 61.4 ng·h/mL
- Cmax [1, 27]: 78.1 ± 23.5 ng/mL
- Tmax [1, 27]: 1 ± 0.87 h
- AUC(0-t) [1, 27]: 452 ± 41.1 ng·h/mL
- Cmax [1, 28]: 57.9 ± 12.5 ng/mL
- Tmax [1, 28]: 1 h
- AUC(0-t) [1, 28]: 395 ± 15.8 ng·h/mL
- Cmax [1, 29]: 100 ± 21.2 ng/mL
- Tmax [1, 29]: 1.1 ± 0.55 h
- AUC(0-t) [1, 29]: 776 ± 182 ng·h/mL
- Cmax [1, 30]: 128 ± 56.9 ng/mL
- Tmax [1, 30]: 1 h
- AUC(0-t) [1, 30]: 929 ± 268 ng·h/mL
- Cmax [1, 31]: 86.2 ± 38.5 ng/mL
- Tmax [1, 31]: 1.2 ± 0.4 h
- AUC(0-t) [1, 31]: 736 ± 141 ng·h/mL
- Effects observed ([2]; 200 mg/kg/day): no effects were observed
- Effects observed ([2]; 800 mg/kg/day): only minor effects were observed
- Tolerability ([2]; dogs, oral 50, 200 and 800 mg/kg/day for 28 consecutive days): well tolerated
- embryotoxic effects [3]: no embryotoxic effects
- chromosome damage [4]: does not induce chromosome damage
- activity against Leishmania donovani amastigotes grown in macrophages [5]: inactive
- maximum dose after oral administration [6]: 10 g/kg of body weight
- suppression of infection due to L. donovani [7]: able to suppress infection
- mammalian cell mutagenicity, bone marrow micronucleus study [8]: negative
- adverse events (AEs) [9]: no observed adverse events
- embryotoxic effects [10]: no embryotoxic effects
- maximum dose after oral administration [11]: 10 g/kg of body weight

From patent US9585871B2, “Method for treating and curing leishmaniosis using fexinidazole” (Merial Limited, priority 2013, dated 2017)
